{
  "source": "patent EP0314302A2",
  "about": "“Herbicidal o-carbomethoxy-sulfonylureas” (E.I. DU PONT DE NEMOURS AND COMPANY, priority 1987, dated 1989)",
  "key": {"Narrowleaf panicum": {"tested_on": "Narrowleaf panicum", "experiment": "Test 3 postemergence weed control", "format": "in vivo, P. maximum", "conditions": "32 g/ha, scale 0-100", "description": "Seeds of crabgrass (Digitaria spp), guinea grass (Panicum maximum) and narrowleaf panicum (P. maximum) were planted in 15-cm plastic pots. The weeds were treated postemergence with compound I, formulated in a non-phytotoxic solvent, when the plants had 3 or more leaves and had tillered. The degree of weed control was visually rated 17 days after compound application (DAT). Control ratings were based on a scale of 0 to 100 where 0 = no effect, 20 = minimal control and 100 = complete control."}, "Lalang": {"tested_on": "Lalang", "experiment": "Test 4 plantation crop weeds, postemergence", "format": "in vivo, Imparata cylindrica", "conditions": "Table 8, scale 0-100", "source_text": "The object of this test was to evaluate the efficacy of the compound of this invention on weeds that infest some plantation crops at different growth stages of the weeds. Asystasia intrusa, Mikania cordata, goldenrod Solidago spp, Boston fern Nephrolepis exalata, and lalang Imparata cylindrica were planted in 15-cm plastic pots. Plants were sprayed postemergence with Compound I in a non-phytotoxic solvent. The Asystasia plants ranged in growth from 4 leaves to 9 leaves and very branched, Mikania had 6 leaves to vining, the goldenrod was branching and the Boston fern was growing vigorously. The degree of weed control was visually rated 20 to 24 days after treatment (DAT). Control ratings are based on the scale of 0 to 100 where 0 = no effect, 20 = minimal control and 100 = complete control. Variations in the results of the tests could be due to the fact that the tests were run at different times of the year or due to the stage of growth of the weeds."}, "coffee": {"tested_on": "coffee", "experiment": "Test 6 effect of surfactants, postemergence", "format": "in vivo, Coffea spp", "conditions": "addition of a surfactant", "source_text": "The object of this test was to evaluate the effect of surfactants and plant growth stage on the efficacy of the compound of this invention. Plastic windowsill pots were filled with planting medium and seeded with yellow nutsedge (Cyperus esculentus), large crabgrass (Digitaria sanguinalis), goosegrass (Elsusine indica), bermudagrass (Cynodon dactylon), broadleaf signalgrass (Brachiara platyphalla), smooth crabgrass (Digitaria ischaemum), guinea grass (Panicum maximum) and johnsongrass (Sorghum halapense). Coffee (Coffea spp) plants with 2 to 4 branches were included in one test.\nPlants were treated postemergence with Compound I formulated with different surfactants or a non-phytotoxic carrier made up of acetone-humectant-water-surfactant."}, "Bonanza barley": {"tested_on": "Bonanza barley", "experiment": "Test 7 postemergence", "format": "in vivo", "conditions": "scale 0-100", "description": "(§1) Individual 11.4-cm plastic pots filled with planting medium were seeded with rape, wild radish (Raphanus raphanistruna). tansy mustard (Descurainia pinnata), ball mustard (Neslia paniculata), black mustard (Brassica nigra), yellow mustard, brown mustard, lentils, safflower, flax, sunflower, peanut, vetch, alfalfa, field bean, pea, violet (Viola spp), Kochia (Kochia spp), Russian thistle (Salsola spp), Matricaria spp, groundsel (Senecio spp), shepherdspurse (Capsella bursa-pastoris), nightshade (Solanum spp), sowthistle (Sonchus spp), sugar beet, wheat, \"Bonanza\" barley and \"Morex\" barley, Kentucky bluegrass (Poa pratensis), red clover (Trifolium pratense), dandelion (Taraxacum spp) and buckhorn plantain (Plantago lanceolata).\n(§2) Plants were treated postemergence with the compound formulated with a non-phytotoxic carrier. Plants were visually rated 18 days after treatment (DAT). Response ratings were based on the scale of 0 to 100 where 0 = no effect, 20 = minimal injury and 100 = complete control."}, "Field bean": {"tested_on": "Field bean", "experiment": "Test 7 postemergence", "format": "in vivo", "conditions": "scale 0-100", "description": "as §1, §2"}, "Flax": {"tested_on": "Flax", "experiment": "Test 7 postemergence", "format": "in vivo", "conditions": "scale 0-100", "description": "as §1, §2"}, "Lentils": {"tested_on": "Lentils", "experiment": "Test 7 postemergence", "format": "in vivo", "conditions": "scale 0-100", "description": "as §1, §2"}, "Peanut": {"tested_on": "Peanut", "experiment": "Test 7 postemergence", "format": "in vivo", "conditions": "scale 0-100", "description": "as §1, §2"}, "Pea": {"tested_on": "Pea", "experiment": "Test 7 postemergence", "format": "in vivo", "conditions": "scale 0-100", "description": "as §1, §2"}, "Safflower": {"tested_on": "Safflower", "experiment": "Test 7 postemergence", "format": "in vivo", "conditions": "scale 0-100", "description": "as §1, §2"}, "Sunflower": {"tested_on": "Sunflower", "experiment": "Test 7 postemergence", "format": "in vivo", "conditions": "scale 0-100", "description": "as §1, §2"}, "Nightshade": {"tested_on": "Nightshade", "experiment": "Test 7 postemergence", "format": "in vivo, Solanum spp", "conditions": "scale 0-100", "description": "as §1, §2"}, "Sugarcane": {"tested_on": "Sugarcane", "experiment": "Test 9 postemergence", "format": "in vivo", "conditions": "scale 0-100"}, "Yellow nutsedge": {"tested_on": "Yellow nutsedge", "experiment": "Test 11 citrus pots, preemergence to the weeds", "format": "in vivo, Cyperus esculentus", "conditions": "Preemergence 32 g/ha; 0.25% X-77 surfactant; scale 0-100", "description": "(§3) Budded citrus seedlings were planted in 30-liter plastic pots which were also seeded with sandbur, guineagrass, narrowleaf panicum, common ragweed, yellow nutsedge, purple nutsedge and bindweed. Compound I was applied preemergence and postemergence to the weeds. Treatments were sprayed to simulate the trunk-to-trunk herbicide application method used in some citrus groves. The compound was also applied postemergence to weeds grown in windowsill flats. The flats were filled with planting medium and seeded with morningglory (Ipomoea spp.). purple nutsedge (Cyperus rotundus), pigweed (Amaranthus spp.), bindweed (Convolvulus spp.), narrowleaf panicum (Panicum maximum), common ragweed (Ambrosia artemisiifolia), sandbur (Cenchrus echinatus), itchgrass (Rottboellia exaltata), johnsongrass (Sorghum halepense), guineagrass (Panicum maximum), smooth crabgrass (Digitaria ischaemum), broadleaf signalgrass (Brachiaria platyphylla), bermudagrass (Cynodon dactylon), goosegrass (Eleusine indica), large crabgrass (Digitaria sanguinalis) and yellow nutsedge (Cyperus esculentus).\n(§4) The compound was formulated and sprayed with 0.25% X-77 surfactant in water. Plants were visually rated 21 and 29 days after treatment and compared with appropriate controls. Injury ratings were based on the scale of 0 to 100, where 0 indicates no effect, 20 indicates minimum effect and 100 indicates complete control. […]"}, "Citrus": {"tested_on": "Citrus", "experiment": "Test 11 citrus pots, postemergence to the weeds", "format": "in vivo", "conditions": "Postemergence 32 g/ha, 0.25% X-77 surfactant, scale 0-100", "description": "as §3, §4"}, "Sandbur": {"tested_on": "Sandbur", "experiment": "Test 11 citrus pots, postemergence to the weeds", "format": "in vivo, Cenchrus echinatus", "conditions": "Postemergence 32 g/ha, 0.25% X-77 surfactant, scale 0-100", "description": "as §3, §4"}, "Common ragweed": {"tested_on": "Common ragweed", "experiment": "Test 11 citrus pots, postemergence to the weeds", "format": "in vivo, Ambrosia artemisiifolia", "conditions": "Postemergence 32 g/ha, 0.25% X-77 surfactant, scale 0-100", "description": "as §3, §4"}, "Bindweed [1]": {"tested_on": "Bindweed", "experiment": "Test 11 citrus pots, postemergence to the weeds", "format": "in vivo, Convolvulus spp.", "conditions": "Postemergence 32 g/ha, 0.25% X-77 surfactant, scale 0-100", "description": "as §3, §4"}, "Pigweed": {"tested_on": "Pigweed", "experiment": "Test 11 windowsill flats, postemergence", "format": "in vivo, Amaranthus spp.", "conditions": "Postemergence 32 g/ha, 0.25% X-77 surfactant, scale 0-100", "description": "as §3, §4"}, "Bindweed [2]": {"tested_on": "Bindweed", "experiment": "Test 11 windowsill flats, postemergence", "format": "in vivo, Convolvulus spp.", "conditions": "Postemergence 32 g/ha, 0.25% X-77 surfactant, scale 0-100", "description": "as §3, §4"}, "Itchgrass": {"tested_on": "Itchgrass", "experiment": "Test 11 windowsill flats, postemergence", "format": "in vivo, Rottboellia exaltata", "conditions": "Postemergence 32 g/ha, 0.25% X-77 surfactant, scale 0-100", "description": "as §3, §4"}},
  "data": [
    {"smiles": "COC(=O)c1cccnc1S(=O)(=O)NC(=O)Nc1nc(OC)cc(OC)n1", "note": "[Compound I, 2-[[(4,6-dimethoxypyrimidin-2-yl)aminocarbonyl]aminosulfonyl]-3-pyridinecarboxylic acid, methyl ester]", "values": [
      {"measurement": "Control Rating 17 DAT", "setting": "Narrowleaf panicum", "value": 90},
      {"measurement": "Control Rating 22 DAT", "setting": "Lalang; 16 g/ha", "value": 20},
      {"measurement": "Control Rating 22 DAT", "setting": "Lalang; 32 g/ha", "value": 20},
      {"measurement": "Control Rating 22 DAT", "setting": "Lalang; 64 g/ha", "value": 40},
      {"measurement": "safety to coffee", "setting": "coffee", "value": "maintaining safety to coffee"},
      {"measurement": "Plant Injury Rating 18 DAT", "setting": "Bonanza barley; 16 g/ha", "value": 90},
      {"measurement": "Plant Injury Rating 18 DAT", "setting": "Bonanza barley; 32 g/ha", "value": 100},
      {"measurement": "Plant Injury Rating 18 DAT", "setting": "Field bean; 16 g/ha", "value": 100},
      {"measurement": "Plant Injury Rating 18 DAT", "setting": "Field bean; 32 g/ha", "value": 100},
      {"measurement": "Plant Injury Rating 18 DAT", "setting": "Flax; 16 g/ha", "value": 100},
      {"measurement": "Plant Injury Rating 18 DAT", "setting": "Flax; 32 g/ha", "value": 100},
      {"measurement": "Plant Injury Rating 18 DAT", "setting": "Lentils; 16 g/ha", "value": 100},
      {"measurement": "Plant Injury Rating 18 DAT", "setting": "Lentils; 32 g/ha", "value": 100},
      {"measurement": "Plant Injury Rating 18 DAT", "setting": "Peanut; 16 g/ha", "value": 100},
      {"measurement": "Plant Injury Rating 18 DAT", "setting": "Peanut; 32 g/ha", "value": 100},
      {"measurement": "Plant Injury Rating 18 DAT", "setting": "Pea; 16 g/ha", "value": 100},
      {"measurement": "Plant Injury Rating 18 DAT", "setting": "Pea; 32 g/ha", "value": 100},
      {"measurement": "Plant Injury Rating 18 DAT", "setting": "Safflower; 16 g/ha", "value": 100},
      {"measurement": "Plant Injury Rating 18 DAT", "setting": "Safflower; 32 g/ha", "value": 100},
      {"measurement": "Plant Injury Rating 18 DAT", "setting": "Sunflower; 16 g/ha", "value": 100},
      {"measurement": "Plant Injury Rating 18 DAT", "setting": "Sunflower; 32 g/ha", "value": 100},
      {"measurement": "Plant Injury Rating 18 DAT", "setting": "Nightshade; 16 g/ha", "value": 50},
      {"measurement": "Plant Injury Rating 18 DAT", "setting": "Nightshade; 32 g/ha", "value": 60},
      {"measurement": "Plant Injury Rating 22 DAT", "setting": "Sugarcane; 8 g/ha", "value": 10},
      {"measurement": "Plant Injury Rating 22 DAT", "setting": "Sugarcane; 16 g/ha", "value": 20},
      {"measurement": "Plant Injury Rating 22 DAT", "setting": "Sugarcane; 32 g/ha", "value": 30},
      {"measurement": "Injury ratings", "setting": "Yellow nutsedge", "value": 100},
      {"measurement": "Injury ratings", "setting": "Citrus", "value": 0},
      {"measurement": "Injury ratings", "setting": "Sandbur", "value": 100},
      {"measurement": "Injury ratings", "setting": "Common ragweed", "value": 0},
      {"measurement": "Injury ratings", "setting": "Bindweed [1]", "value": 100},
      {"measurement": "Injury ratings", "setting": "Pigweed", "value": 100},
      {"measurement": "Injury ratings", "setting": "Bindweed [2]", "value": 100},
      {"measurement": "Injury ratings", "setting": "Itchgrass", "value": 100}
    ]}
  ]
}
